Data published in patent US9795137B2, “Metalaxyl and prothioconazole cocrystals and methods of making and using” (Bayer CropScience LP, priority 2012, dated 2017).
In brackets after ≈: the same amount, converted by molar mass. Read-outs that look alike come from different tables or passages of the source.

Assays:
[1] = Water solubility of saturated solutions at pH 7.0, measured by HPLC; conditions: metalaxyl and prothioconazole as separate compounds (0.2 g each in one bottle), 10 mL pH 7.0 buffer, stirred about 12 hours at 20° C.±1° C.
Description: A saturated solution of metalaxyl and prothioconazole as separate compounds was prepared by the following procedure: 0.2 grams each of metalaxyl and prothioconazole were weighed and placed into a 0.5 oz bottle. 10 mL of pH 7.0 (Fisher #SB107-500) was added to the bottle. A magnetic stir bar was added to the bottle and the bottle was capped and shaken. The bottle was placed on a magnetic stirrer for about 12 hours at a temperature of 20° C.±1° C. stirring on low.
10 mL of pH 7.0 (Fisher #SB107-500) was added to the bottle. A magnetic stir bar was added to the bottle and the bottle was capped and shaken. The bottle was placed on a magnetic stirrer for about 12 hours in a room at 20° C.±1° C., stirring on low.

[2] = water solubility measurements at pH 7.0 in an aspect, cited from earlier work

Row | Compound | solubility at pH 7.0 [1] | water solubility ([2]; at 22° C.) | water solubility ([2]; at 25° C.)
1 | COCC(=O)N(c1c(C)cccc1C)C(C)C(=O)OC (racemic) [metalaxyl, N-(2,6-dimethylphenyl)-N-(methoxyacetyl)-DL-alanine methyl ester] | 0.62% | about 8.4 g/l | 
2 | OC(Cc1ccccc1Cl)(Cn1nc[nH]c1=S)C1(Cl)CC1 (stereo not shown) [prothioconazole, 2-[2-(1-chlorocyclopropyl)-3-(2-chlorophenyl)-2-hydroxypropyl]-1,2-dihydro-3H-1,2,4-triazole-3-thione] | 0.0002% |  | 0.61 µg/mL (≈ 1.77 µM)
